What all share (assay type): cell-based
For experiment [1], the system named is human astrocytes. The experiment in a line: Glutathione assay (GSH-Glo) in human astrocytes. Conditions: 20-hr exposure (FIG. 2). How it is done: (§1) Human astrocytes from ScienCell (cat #1820) were grown in astrocyte medium per supplier's instructions. Cells cultured for no more than two passages were plated in 96-well plates at 40,000 cells per well for gene transcription experiments and 20,000 cell per well for glutathione and cytoprotection assays.
Intracellular glutathione was measured after a 20-hr exposure to test compound 3-Ent1 by a two-step process. First, cells were lysed and luciferin quantitatively generated from substrate, catalyzed by glutathione-S-transferase in the presence of analyte glutathione. Then luciferin was assayed using stabilized luciferase to produce a luminescent signal proportional to the concentration of glutathione (Promega GSH-Glo, cat #V6912).

The subject of experiment [2] is human astrocytes. The experiment is described as follows: Cytoprotection of astrocytes against sodium arsenite. Conditions: compound 20 hrs before 25 μM sodium arsenite, further 22 hrs (FIG. 3). The protocol:
as §1
Astrocytes were treated for 20 hrs as above, then the medium was removed and replaced with serum- and supplement-free growth medium with and without 25 μM sodium arsenite. After 22 hrs., cells were washed with PBS, fixed with 4% paraformaldehyde/4% sucrose in PBS, stained with 4′,6-Diamidino-2-phenylindole dihydrochloride (DAPI) and counted by quantitative fluorescence microscopy.

The subject of experiment [3] is Nrf2 target genes. The experiment in a line: Gene expression (RT-PCR) in cultured human astrocytes. Conditions: 20 hours, increasing concentrations. The protocol:
as §1
Primary cultures of human spinal cord astrocytes were treated with compound 3-Ent1 for 20 hours. The cells were then rinsed in PBS, lysed, and processed for RNA using Ambion Taqman™ Cells-to-CT kit. The resulting cDNA was stored at −20° C. until analysis by real-time polymerase chain reaction (RT-PCR). The cDNA mixture from Cells-to-CT was diluted 5x before loading into PCR. This yields results similar to using 6 ng of purified cDNA. RT-PCR was performed on Life Technologies QuantStudio platform using OpenArray technique according to manufacturer's protocol using the following Taqman primers: […]
The comparative CT method was used to calculate fold changes using ThermoFisher Cloud software for PCR analysis. Samples were compared to vehicle control.

This note sets out measurements from US20190389830A1, “NRF2 ACTIVATOR” (BIOGEN MA INC., priority 2017, published 2019).

On to `CC1CCC2(C)C=C(C#N)C(=O)C(C)(C)C2O1` (single isomer, unassigned; ent1) [Compound 3-Ent1], for which, in experiment [1], the intracellular glutathione entry is given as “increases”. Further, the “protection from oxidative stress-induced cell death” value in experiment [2] is “protects cells”. In addition, the “transcription of GCLC” value in experiment [3] (compared to vehicle control (FIG. 1A)) was “induces transcription”. The “transcription of HMOX1” value in experiment [3] (compared to vehicle control (FIG. 1B)) is recorded as “induces transcription”. For the same compound, in experiment [3] (compared to vehicle control (FIG. 1C)), the “transcription of OSGIN1” value was “induces transcription”. Besides, in experiment [3] (compared to vehicle control (FIG. 1D)), the “transcription of NQO1” value is “induces transcription”.
